In US7045283B2, “Methods of high-throughput screening for internalizing antibodies” (The Regents of the University of California, priority 2000, dated 2006):
≈ marks a conversion by molar mass, not a printed value.

How the values were obtained:
in vitro = conditions: BEND-3 endothelial cells expressing VEGF receptor
Method: Bovine endothelial cells (BEND-3) expressing vascular endothelial growth factor (VEGF) receptor were incubated (37° C., 6 hours) in the growth medium containing 0.03–90 microgram/mL of the free (i.e. non-encapsulated) vinorelbine, or vinorelbine encapsulated in the Ni-NTA-PEG-DSPE liposomes with or without 0.02 mg/niL of the intemalizing anti-VEGER scFv antibody 4G7 having a hexahistidine tag and a terminal cysteine group. The cells were post-incubated in the growth medium without the drug for another 72 hours, and the viability of the cells was determined by a conventional tetrasolium (MTT) assay.

[1] = Methotrexate encapsulation by reverse phase evaporation (direct sequestration) and leakage; format: physicochemical

SMILES | IC50 at 6 h (in vitro) | MTX loading efficiency [1]
CCC1=C[C@@H]2CN(C1)Cc1c([nH]c3ccccc13)[C@@](C(=O)OC)(c1cc3c(cc1OC)N(C)[C@H]1[C@@](O)(C(=O)OC)[C@H](OC(C)=O)[C@]4(CC)C=CCN5CC[C@]31[C@@H]54)C2 [free vinorelbine, vinorelbine] | 0.67 µg/mL (≈ 0.86 µM) | –
CN(Cc1cnc2nc(N)nc(N)c2n1)c1ccc(C(=O)N[C@@H](CCC(=O)O)C(=O)O)cc1 [free methotrexate, methotrexate] | > 90 µg/mL | 28.7–29.5%
